Laboratory results reported in patent US9133257B2, “Antimicrobial peptides and derived metapeptides” (priority 1998, dated 2015).
Ends that are not written are not given here.

Legend:
[1] = system: Candida Krusei ATCC 32672; parameters: key: R, resistant; S, sensitive; conditions: control strain ATCC 32672; cited from earlier work
[2] = system: Candida Albicans ATCC 36082; parameters: key: R, resistant; S, sensitive; conditions: control strain ATCC 36082; cited from earlier work
[3] = system: Candida Lusitaniae ATCC 42720; parameters: key: R, resistant; S, sensitive; conditions: control strain ATCC 42720; cited from earlier work
[4] = system: Staphylococus Aureus ATCC 27217; parameters: key: R, resistant; S, sensitive; conditions: control strain ATCC 27217; cited from earlier work
[5] = system: Pseudomonas aeruginosa ATCC 17468; parameters: key: R, resistant; S, sensitive; conditions: control strain ATCC 17468; cited from earlier work
[6] = system: Enterococcus Faecalis ATCC 47707; parameters: key: R, resistant; S, sensitive; conditions: control strain ATCC 47707; cited from earlier work
[7] = system: Streptococcus pneumonia ATCC 35088; parameters: key: R, resistant; S, sensitive; conditions: control strain ATCC 35088; cited from earlier work
[8] = system: Escherichia coli ATCC 43827; parameters: key: R, resistant; S, sensitive; conditions: control strain ATCC 43827; cited from earlier work
a spectrum of pathogens = test: antimicrobial spectra in vitro (radial diffusion assay)
relevant pathogens = test: microbicidal activity in vitro at pH 5.5 vs 7.2; assay type: cell-based
Description: Our preliminary data provide a basis for our central discovery that PMPs have specific, independent determinants responsible for direct antimicrobial activities and potentiation of neutrophil antimicrobial functions. We have shown that these determinants can be isolated, optimized, and utilized to design novel mosaic peptides with selective antimicrobial properties. With a goal of designing novel therapeutics that have potent and selective antimicrobial functions and low toxicity, optimizing the activities of the distinct structural determinants in such peptides is essential.
Controls contain buffer alone or non-antimicrobial proteins and organism as above. Mixtures are incubated at 37° C. for up to 48 hours, after which aliquots are quantitatively cultured and incubated for 24 to 48 hours. Killing is expressed as decrease in logarithm10 surviving CFU/ml. The limit of sensitivity in microbicidal assays is considered to be a 1 log reduction in viable cells.

S. aureus strain 6850 = test: flow cytometry of membrane depolarization (DiOC5), permeabilization (PI) and killing, PMP-susceptible strain; assay type: cell-based
Description: (§1) Our recent studies have provided new evidence that PMPs differ in mechanisms of action from those of other antimicrobial peptides. We used flow cytometry to study the mechanisms of action of PMPs against S. aureus strain pair 6850 (PMP^S) and JB-1 (PMP^R) in vitro. Strain JB-1 is a menadione auxotroph of parent strain 6850, and has a decreased transcytoplasmic membrane potential (ΔΨ). We used the fluorescent probes dioxycarbocyanine (DiOC5) and propidium iodide (PI) to quantify the effects of PMP-2 and human defensin NP-1 (hNP-1) on ΔΨ and permeability, respectively. […] Menadione reconstituted the PMP^R strain ΔΨ to a level equivalent to the PMP^S strain. This was associated with increased depolarization, permeabilization, and killing of the PMP^R strain due to PMP-2. Therefore, the mechanism of PMP-2 action involves rapid, pH-dependent membrane permeabilization with membrane depolarization. These effects were different from hNP-1, or the cationic antibacterial agents protamine or gentamicin.
Flow cytometry can also be used to examine kinetics and mechanisms of the action of the peptides on bacterial membrane integrity and energetics. Peptides which differ in activity or specificity for their ability to depolarize and/or permeabilize microbial membranes can also be compared by analysis of membrane depolarization, and permeabilization. DiOC5 is a charged lipophilic dye which partitions into the cytoplasm, and is dependent on intact Δψ for intracellular retention. Organisms prepared as above are labeled in darkness for 30 minutes at about 20° C. in PBS containing 0.05 μM DiOC5. Organisms are resuspended to a concentration of 5×10^8 CFU/ml in K^+MEM containing an individual peptide, and incubated at 37° C. For flow cytometry, organisms are washed, sonicated, counted, and resuspended in K^+MEM buffer. Reductions in mean DiOC5 fluorescence relative to controls are interpreted to represent loss of DiOCs, indicating membrane depolarization. Positive control cells exposed to valinomycin, as well as control cells not exposed to any peptides, are analyzed for DiOC5 fluorescence in parallel.
Propidium iodide is excluded from cells with normal membrane integrity, but enters cells permealized to molecules ≧2 nm in diameter, and can be stimulated to emit fluorescence at >620 nm. […] Cells are washed in fresh K^+MEM, sonicated, counted, and resuspended in KIMEM buffer containing 20 μM propidium iodide. Control cells exposed to ethanol (positive control for permeabilization) are assessed for propidium iodide uptake in parallel. Increases in mean propidium iodide fluorescence relative to control cells are interpreted to indicate increases in permeability.

[9] = system: Salmonella typhimurium strain 14028; test: susceptibility of Salmonella typhimurium strains; assay type: cell-based; conditions: parental strain 14028
human neutrophils [10] = test: neutrophil phagocytosis of S. aureus pre-exposed to sub-lethal PMP-2 or serum; assay type: cell-based; conditions: organisms pre-exposed 30 minutes to sub-lethal concentrations, mixed with neutrophils (20:1), 37° C., 2 hours
Protocol: (§2) We have initially studied the influence of PMP-2 on in vitro neutrophil phagocytosis and intracellular killing of S. aureus. In our preliminary experiments, a heterologous system was established employing human neutrophils, pooled normal human serum, or crude rabbit PMP-2. Organisms (5×10^7/ml) were pre-exposed to sub-lethal concentrations of serum or PMP-2 for 30 minutes, washed, mixed with neutrophils (20:1), and incubated at 37° C. for 2 hours. We observed a significant increase in phagocytosis of S. aureus when pre-exposed to PMP-2 (mean organisms/neutrophil=11.2), as compared with serum (mean organisms/neutrophil=6.4) or buffer control (mean organisms/neutrophil=3.7; P<0.05 for PMP-2 vs. serum or buffer). To quantify intracellular killing, neutrophils were lysed, and aliquots quantitatively cultured to enumerate surviving S. aureus cells.

S. aureus strain JB-1 = test: flow cytometry of membrane depolarization (DiOC5), permeabilization (PI) and killing, PMP-resistant strain; assay type: cell-based; conditions: PMP-resistant strain JB-1 compared with PMP-susceptible strain
Description: as §1, with “This was associated with increased depolarization, permeabilization, and killing of the PMP^R strain due to PMP-2. Therefore, the mechanism of PMP-2 action involves rapid, pH-dependent membrane permeabilization with membrane depolarization. These effects were different from hNP-1, or the cationic antibacterial agents protamine or gentamicin.” left out
Flow cytometry can also be used to examine kinetics and mechanisms of the action of the peptides on bacterial membrane integrity and energetics. […] For flow cytometry, organisms are washed, sonicated, counted, and resuspended in K^+MEM buffer. Reductions in mean DiOC5 fluorescence relative to controls are interpreted to represent loss of DiOCs, indicating membrane depolarization. Positive control cells exposed to valinomycin, as well as control cells not exposed to any peptides, are analyzed for DiOC5 fluorescence in parallel.
Propidium iodide is excluded from cells with normal membrane integrity, but enters cells permealized to molecules ≧2 nm in diameter, and can be stimulated to emit fluorescence at >620 nm. […]

human neutrophils [11] = test: intracellular killing of S. aureus by neutrophils; assay type: cell-based; conditions: 2 hour time point, neutrophils lysed, quantitative culture
Protocol: as §2

S. aureus = test: transmission electron microscopy of bacterial cells after peptide exposure; assay type: cell-based; conditions: 10 μg/ml, as little as 15-60 min
Description: PMPs and tPMPs target and disrupt microbial cytoplasmic membranes. We have investigated morphologic consequences of rabbit PMP-2 and tPMP-1 exposure to bacterial cells, protoplasts, and lipid bilayers in vitro using transmission electron microscopy (TEM) and biophysical techniques. […] Ultrastructural damage precedes detectable bactericidal and bacteriolytic effects. […] It is important to reiterate that PMPs are likely released into the bloodstream in response to infection, such that they presumably accumulate locally at sites of infection to act directly and indirectly in antimicrobial host defense.

[12] = system: vascular endothelial cells; assay type: cell-based, human
Description: (§3) The majority of known mammalian antimicrobial peptides have been localized within leukocytes (e.g., defensins), or secreted onto epithelial surfaces such as intestinal lumen or tracheal epithelium (e.g., cryptdins, tracheal antimicrobial peptide). Prohibitive levels of mammalian cell toxicity have been noted with many of these peptides when they have been tested as antimicrobial therapeutics. In contrast, PMPs exert potent in vitro microbicidal activity against a broad spectrum of bacteria and fungi under physiological conditions that exist in the intravascular space. Several PMPs are released from platelets stimulated with agonists associated with infection. Therefore, in response to tissue injury, PMPs are likely released into the mammalian bloodstream at localized sites of infection. […] These potencies compare favorably to potent conventional antimicrobial agents such as aminoglycosides or amphotericin B.
Endothelial cell injury due to peptides is measured using a standard chromium (^51Cr) release assay, described in Filler, S. G., et al., “Candida stimulates endothelial cell eicosanoid production” J Infect Dis. […] After a predetermined incubation period, the medium is aspirated and the amount of ^51Cr released into the medium is measured by scintillation. […]

human erythrocytes = assay type: cell-based
Description: as §3
Four-percent (vol/vol) of washed human erythrocytes (in PBS alone, or in PBS plus 10% heat-inactivated PNHS are incubated with selected peptides ranging in concentration up to 100 times greater than geometric mean MICs. After 24 hours of incubation at 37° C., erythrocyte permeabilization and hemolysis are determined spectrophotometrically. Permeabilization and hemolysis will be compared to buffers alone, and with a triton X-100 control (100% hemolysis).

Question: What does the source list for `C[C@@H]1[C@H](O)[C@@H](C)/C=C/C=C/C=C/C=C/C=C/C=C/C=C/[C@H](O[C@@H]2O[C@H](C)[C@@H](O)[C@H](N)[C@@H]2O)C[C@@H]2O[C@](O)(C[C@@H](O)C[C@@H](O)[C@H](O)CC[C@@H](O)C[C@@H](O)CC(=O)O[C@H]1C)C[C@H](O)[C@H]2C(=O)O` [Amb, amphotericin B]?
Answer: Antibiotic Resistance Phenotype [1]: S; Antibiotic Resistance Phenotype [2]: S; Antibiotic Resistance Phenotype [3]: R

Question: Which results are given for `OC(Cn1cncn1)(Cn1cncn1)c1ccc(F)cc1F` [Flu, fluconazole]?
Answer: Antibiotic Resistance Phenotype [1]: R; Antibiotic Resistance Phenotype [2]: S; Antibiotic Resistance Phenotype [3]: R

Question: For `CN[C@H](CC(C)C)C(=O)N[C@H]1C(=O)N[C@@H](CC(N)=O)C(=O)N[C@H]2C(=O)N[C@H]3C(=O)N[C@H](C(=O)N[C@H](C(=O)O)c4cc(O)cc(O)c4-c4cc3ccc4O)[C@H](O)c3ccc(c(Cl)c3)Oc3cc2cc(c3O[C@@H]2O[C@H](CO)[C@@H](O)[C@H](O)[C@H]2O[C@H]2C[C@](C)(N)[C@H](O)[C@H](C)O2)Oc2ccc(cc2Cl)[C@H]1O` [Van, vancomycin], which “Antibiotic Resistance Phenotype” value [4] is on record?
Answer: S

Question: And the “Antibiotic Resistance Phenotype” value [5]?
Answer: R

Question: And the “Antibiotic Resistance Phenotype” value [6]?
Answer: R

Question: What about the “Antibiotic Resistance Phenotype” value [7] of the same molecule?
Answer: S

Question: What about the “Antibiotic Resistance Phenotype” value [8] of the same molecule?
Answer: S

Question: What does the source list for ALYKKFKKKLLKSLKRLG [RP-1]?
Answer: pH optima for microbicidal activity (a spectrum of pathogens): 7.2 pH; concentration for microbicidal activity (a spectrum of pathogens; in vitro): nanomolar concentration

Question: For H-ATKKNGRKLCLDLQAAL-OH [PMP-246-63], which “pH dependence of microbicidal activity” value (relevant pathogens) is on record?
Answer: significantly amplified at pH 5.5 as compared to pH 7.2

Question: With hNP-1: human neutrophil defensin NP-1 as the molecule, how does the “pH dependence of membrane permeabilization” value (S. aureus strain 6850; pH 7.2 vs pH 5.5) read?
Answer: greater at pH 7.2 than at pH 5.5

Question: What about the “membrane permeabilization, PMP-susceptible vs PMP-resistant strain” value (S. aureus strain 6850; strains 6850 and JB-1 compared) of the same molecule?
Answer: equivalent

Question: And the susceptibility of strain [9]?
Answer: intrinsically resistant

B1: PMP-2: 74 residue rabbit platelet microbicidal protein, variant of PMP-1, analogue of rPF-4 (protein, listed as Oryctolagus cuniculus)
chain: SDDPKESEGDLHCVCVKTTSLVRPRHITNLELIKAGGHCPTANLIATKKNGRKLCLDLQAALYKKKIIKKLLES
Question: With B1 as the molecule, how does the “pH dependence of microbicidal activity” value (relevant pathogens) read?
Answer: significantly greater microbicidal activity at pH 5.5 vs. 7.2

Question: What about the “phagocytosis of S. aureus, mean organisms/neutrophil” value (human neutrophils [10]) of the same molecule?
Answer: 11.2 organisms/neutrophil

Question: And the “depolarization, permeabilization and killing” value (S. aureus strain JB-1)?
Answer: significantly less

Question: What about the “depolarization, permeabilization and killing” value (S. aureus strain 6850; PMP-susceptible strain 6850) of the same molecule?
Answer: rapidly depolarized, permeabilized, and killed

Question: And the “pH dependence of depolarization, permeabilization and killing” value (S. aureus strain 6850; pH 5.5 vs. pH 7.2)?
Answer: significantly greater at pH 5.5 vs. pH 7.2

Question: And the “S. aureus cells surviving intracellular killing” value (human neutrophils [11])?
Answer: 23.8%

Question: What about the “ultrastructural damage (TEM)” value (S. aureus) of the same molecule?
Answer: Rapid cytoplasmic membrane disruption, followed by cell wall swelling

Question: What about the “damage of vascular endothelial cells” value [12] of the same molecule?
Answer: minimal damage

Question: What about the “damage of human erythrocytes” value (human erythrocytes) of the same molecule?
Answer: minimal damage

Question: And the susceptibility of strain [9]?
Answer: as susceptible to PMP-2 as hNP-1 hypersusceptible strains 4252s and 5996s
